Measurements from patent US8338339B2, “Process for inhibition of proteolytic activity during the ensiling of forages” (The United States of America as represented by the …, priority 2003, dated 2012).
Each block holds one molecule with its values, some of them ahead of it.

Columns and labels:
Assay type in all cases: biochemical
[1] = test system: proteolytic activity in red clover leaf extracts; experiment: Proteolysis (release of free amino acids, ninhydrin assay) in red clover leaf extracts; settings: desalted red clover extract + 3 mM CA, 37° C.
Protocol: Clarified extracts of red clover leaves were made in 50 mM MES, pH 6.5 (crude extract in Table 1). Where indicated, extracts were desalted using a Sephadex G-25 spin column equilibrated with 50 mM MES, pH 6.5, to remove low molecular weight molecules (i.e. o-diphenols). Extract protein concentrations were adjusted to 2 mg/ml with buffer. Where indicated, the o-diphenol in the form of caffeic acid (CA) was added to a final concentration of 3 mM. Extracts were incubated at 37° C. […] Data are the average of three experiments using independent tissue samples ±standard error.

[2] = test system: proteolysis in control-alfalfa leaf extracts (no PPO transgene); experiment: Proteolysis (amino acid release) in control-alfalfa leaf extracts
Protocol: (§1) Clarified extracts of red clover leaves were made in 50 mM MES, pH 6.5 (crude extract in Table 1). Where indicated, extracts were desalted using a Sephadex G-25 spin column equilibrated with 50 mM MES, pH 6.5, to remove low molecular weight molecules (i.e. o-diphenols). Extract protein concentrations were adjusted to 2 mg/ml with buffer. Where indicated, the o-diphenol in the form of caffeic acid (CA) was added to a final concentration of 3 mM. Extracts were incubated at 37° C. At the indicated times, samples were removed, trichloroacetic acid (TCA) added to 5%, and release of free amino acids (a measure of proteolytic activity) into the TCA-soluble supernatant was determined by ninhydrin assay. Data are the average of three experiments using independent tissue samples ±standard error.
(§2) Proteolysis was measured in leaf extracts essentially as described in Experiment 1 above. The o-diphenol in the form of caffeic acid was added to 3 mM caffeic acid. Data are the average of three experiments using independent tissue samples ±standard error.
(§3) Proteolysis after a four hour incubation at 37° C. was measured essentially as described for Experiment 1 above in leaf extracts of either transgenic alfalfa expressing the red clover PPO1 gene (PPO-alfalfa) or control-alfalfa not expressing an exogenous PPO gene (control-alfalfa) using the o-diphenol in the form of caffeic acid at various concentrations up to 10 mM. Data are the average of three experiments using independent tissue samples ±standard error.
(§4) Proteolysis in the reaction mixtures following a four hour incubation at 37° C. was measured essentially as described above for reaction mixture with and without caffeic acid added to 3 mM (+CA and −CA, respectively). Data are the average of three experiments using independent tissue samples ±standard error.
(§5) Proteolysis after a four hour incubation at 37° C. was measured (as described in Example 1 above) of alfalfa for reaction mixtures containing either 250 mU/ml PPO activity (protein adjusted to 2 mg/ml with control alfalfa extract) or a control alfalfa extract (2 mg/ml protein). Various o-diphenols were present in the reaction mixtures at 3 mM, including caffeic acid (CA) hydrocaffeic acid (HCA), chlorogenic acid (CGA), catechol, and (−)-epicatichin.

[3] = test system: proteolysis in oat leaf extracts; experiment: Proteolysis (amino acid release) in oat leaf extracts; settings: for Mean amino acid release: with 3 mM Caffeic Acid
Protocol: as §1
Proteolysis was measured in oat leaf extracts or oat leaf extracts with PPO activity added (125 mU/ml). The added PPO activity was from an extract of red clover PPO1-expressing alfalfa. […] Total protein was 1.75 mg/ml. In Oat+alfalfa extracts, oat protein was present at 1.4 mg/ml and alfalfa protein was present at 0.35 mg/ml. Caffeic acid was present at 3 mM. Results in Table 6 below are for the average of two experiments using independent tissue samples.

[4] = test system: proteolysis in leaf extracts of transgenic alfalfa expressing the red clover PPO1 gene; experiment: Proteolysis (amino acid release) in PPO-alfalfa leaf extracts / alfalfa extracts with PPO activity; settings: for inhibition of proteolysis: 3 mM caffeic acid
Protocol: as §1, §2, §3, §4, §5

[5] = test system: polyphenol oxidase (PPO), red clover PPO1 gene product; experiment: PPO activity (caffeic acid oxidized per minute, TNB protocol); settings: PPO1 expressed in transgenic alfalfa
Protocol: The o-diphenol compound is applied to forage at a rate ranging from about 5 to about 30 micromoles per gram of fresh weight forage and the oxidase is applied at a rate of about 0.1 to about 1 unit per gram of fresh weight forage. One unit is defined as one micromole of caffeic acid oxidized per minute by the following protocol.
The protocol used to determine activity is carried out at 25° C. The buffer is 20 mM TRIS-acetate pH 7.0. The caffeic acid is 100 mM in ethyl alcohol. […] The decrease in absorbance at 412 nm (TNB) from 2-5 minutes is used to determine PPO activity.
PPO activity present in reaction mixtures was varied from 0 to 500 mU/ml of extract by mixing extracts from PPO- and control-alfalfa (1 U=1 micromole caffeic acid oxidized/min; red clover and PPO-Alfalfa have 0.5-5 U activity/mg protein) to achieve a final protein concentration of 2 mg/ml. Proteolysis in the reaction mixtures following a four hour incubation at 37° C. was measured essentially as described above for reaction mixture with and without caffeic acid added to 3 mM (+CA and −CA, respectively). […]

[6] = Control-Alfalfa extract 2 mg/ml protein, substrate 3 mM, 37° C.
[7] = PPO-Alfalfa, 250 mU/ml PPO activity, substrate 3 mM, 37° C.

Structure (SMILES): O=C(O)/C=C/c1ccc(O)c(O)c1 [CA, caffeic acid]
release of free amino acids ([1]; 0 h): 0.00 ± 0.00
release of free amino acids ([1]; 1 h): 0.04 ± 0.01
release of free amino acids ([1]; 2 h): 0.06 ± 0.01
release of free amino acids ([1]; 3 h): 0.09 ± 0.01
release of free amino acids ([1]; 4 h): 0.11 ± 0.02
Mean four hour Amino Acid Release ([2]; 3 mM Caffeic Acid, PPO 0 mU/ml (control-alfalfa extract), protein 2 mg/ml): 0.79 ± 0.10 µmol/mg
Mean four hour Amino Acid Release [2, 6]: 0.75 ± 0.08 µmol/mg
Mean four hour Amino Acid Release ([2]; Control-Alfalfa, caffeic acid 0.5 mM, 37° C.): 0.75 ± 0.09 µmol/mg
Mean four hour Amino Acid Release ([2]; Control-Alfalfa, caffeic acid 1 mM, 37° C.): 0.69 ± 0.06 µmol/mg
Mean four hour Amino Acid Release ([2]; Control-Alfalfa, caffeic acid 2 mM, 37° C.): 0.70 ± 0.07 µmol/mg
Mean four hour Amino Acid Release ([2]; Control-Alfalfa, caffeic acid 3 mM, 37° C.): 0.66 ± 0.09 µmol/mg
Mean four hour Amino Acid Release ([2]; Control-Alfalfa, caffeic acid 4 mM, 37° C.): 0.75 ± 0.07 µmol/mg
Mean four hour Amino Acid Release ([2]; Control-Alfalfa, caffeic acid 5 mM, 37° C.): 0.75 ± 0.11 µmol/mg
Mean four hour Amino Acid Release ([2]; Control-Alfalfa, caffeic acid 10 mM, 37° C.): 0.65 ± 0.06 µmol/mg
effect on proteolysis ([2]; caffeic acid 3 mM added to control alfalfa extracts): no significant effect
effect on proteolysis ([2]; in the absence of PPO activity, caffeic acid up to 10 mM): little effect
proteolytic inhibition ([3]; 3 mM caffeic acid with exogenous PPO added (125 mU/ml) to oat extract): ~50%
Mean amino acid release ([3]; Oat extract, time 0): 0.00 ± 0.00 μmol/mg protein
Mean amino acid release ([3]; Oat extract, time 1): 0.82 ± 0.18 μmol/mg protein
Mean amino acid release ([3]; Oat extract, time 2): 1.39 ± 0.09 μmol/mg protein
Mean amino acid release ([3]; Oat extract, time 3): 1.73 ± 0.15 μmol/mg protein
Mean amino acid release ([3]; Oat extract, time 4): 1.79 ± 0.07 μmol/mg protein
Mean amino acid release ([3]; Oat/Control-Alf extract, time 0): 0.00 ± 0.00 μmol/mg protein
Mean amino acid release ([3]; Oat/Control-Alf extract, time 1): 0.75 ± 0.17 μmol/mg protein
Mean amino acid release ([3]; Oat/Control-Alf extract, time 2): 1.42 ± 0.06 μmol/mg protein
Mean amino acid release ([3]; Oat/Control-Alf extract, time 3): 1.73 ± 0.05 μmol/mg protein
Mean amino acid release ([3]; Oat/Control-Alf extract, time 4): 1.91 ± 0.05 μmol/mg protein
Mean amino acid release ([3]; Oat/PPO-Alf (PPO 125 mU/ml), time 0): 0.00 ± 0.00 μmol/mg protein
Mean amino acid release ([3]; Oat/PPO-Alf (PPO 125 mU/ml), time 1): 0.60 ± 0.20 μmol/mg protein
Mean amino acid release ([3]; Oat/PPO-Alf (PPO 125 mU/ml), time 2): 0.80 ± 0.13 μmol/mg protein
Mean amino acid release ([3]; Oat/PPO-Alf (PPO 125 mU/ml), time 3): 0.82 ± 0.11 μmol/mg protein
Mean amino acid release ([3]; Oat/PPO-Alf (PPO 125 mU/ml), time 4): 1.02 ± 0.22 μmol/mg protein
lower proteolysis than counterparts lacking caffeic acid ([3]; all oat reactions containing 3 mM CA): 10-30%
Mean four hour Amino Acid Release ([4]; 3 mM Caffeic Acid, PPO 16 mU/ml, protein 2 mg/ml): 0.36 ± 0.03 µmol/mg
Mean four hour Amino Acid Release ([4]; 3 mM Caffeic Acid, PPO 32 mU/ml, protein 2 mg/ml): 0.34 ± 0.05 µmol/mg
Mean four hour Amino Acid Release ([4]; 3 mM Caffeic Acid, PPO 62.5 mU/ml, protein 2 mg/ml): 0.21 ± 0.02 µmol/mg
Mean four hour Amino Acid Release ([4]; 3 mM Caffeic Acid, PPO 125 mU/ml, protein 2 mg/ml): 0.15 ± 0.03 µmol/mg
Mean four hour Amino Acid Release ([4]; 3 mM Caffeic Acid, PPO 250 mU/ml, protein 2 mg/ml): 0.12 ± 0.01 µmol/mg
Mean four hour Amino Acid Release ([4]; 3 mM Caffeic Acid, PPO 500 mU/ml, protein 2 mg/ml): 0.06 ± 0.03 µmol/mg
inhibition of proteolysis ([4]; >125 mU/ml PPO activity, four hour): > 80%
inhibition of proteolysis ([4]; PPO activity 16 mU/ml, four hour): > 50%
Mean four hour Amino Acid Release [4, 7]: 0.12 ± 0.03 µmol/mg
Mean four hour Amino Acid Release ([4]; PPO-Alfalfa, caffeic acid 0.5 mM, 37° C.): 0.32 ± 0.03 µmol/mg
Mean four hour Amino Acid Release ([4]; PPO-Alfalfa, caffeic acid 1 mM, 37° C.): 0.25 ± 0.03 µmol/mg
Mean four hour Amino Acid Release ([4]; PPO-Alfalfa, caffeic acid 2 mM, 37° C.): 0.16 ± 0.03 µmol/mg
Mean four hour Amino Acid Release ([4]; PPO-Alfalfa, caffeic acid 3 mM, 37° C.): 0.11 ± 0.02 µmol/mg
Mean four hour Amino Acid Release ([4]; PPO-Alfalfa, caffeic acid 4 mM, 37° C.): 0.08 ± 0.02 µmol/mg
Mean four hour Amino Acid Release ([4]; PPO-Alfalfa, caffeic acid 5 mM, 37° C.): 0.06 ± 0.01 µmol/mg
Mean four hour Amino Acid Release ([4]; PPO-Alfalfa, caffeic acid 10 mM, 37° C.): 0.04 ± 0.02 µmol/mg
proteolytic inhibition compared to extracts to which no caffeic acid was added ([4]; caffeic acid 0.5 mM, PPO-alfalfa extract, four hour): > 50%
reduction in proteolysis ([4]; caffeic acid 3 mM added to PPO-alfalfa extract): ~80%
proteolytic inhibition ([4]; caffeic acid 3 mM, PPO-alfalfa extract, four hour): > 80%

Structure (SMILES): O=C(/C=C/c1ccc(O)c(O)c1)O[C@@H]1C[C@](O)(C(=O)O)C[C@@H](O)[C@H]1O [CGA, chlorogenic acid]
Mean four hour Amino Acid Release [2, 6]: 0.80 ± 0.06 µmol/mg
Mean four hour Amino Acid Release [4, 7]: 0.26 ± 0.06 µmol/mg

substrate quality for the red clover PPO1 gene product [5]: relatively poor substrate
Structure (SMILES): Oc1ccccc1O [Catechol, catechol]
Mean four hour Amino Acid Release [2, 6]: 0.71 ± 0.10 µmol/mg
proteolytic inhibition (in words) ([4]; 3 mM, PPO present (250 mU/ml), four hour): significant proteolytic inhibition
Mean four hour Amino Acid Release [4, 7]: 0.37 ± 0.05 µmol/mg

Structure (SMILES): Oc1cc(O)c2c(c1)O[C@H](c1ccc(O)c(O)c1)[C@H](O)C2 [Epicatichin, (−)-epicatichin]
Mean four hour Amino Acid Release [2, 6]: 0.64 ± 0.08 µmol/mg
Mean four hour Amino Acid Release [4, 7]: 0.25 ± 0.08 µmol/mg

Structure (SMILES): O=C(O)CCc1ccc(O)c(O)c1 [HCA, hydrocaffeic acid]
Mean four hour Amino Acid Release [2, 6]: 0.70 ± 0.07 µmol/mg
Mean four hour Amino Acid Release [4, 7]: 0.25 ± 0.07 µmol/mg
